From PMC6891813, “Piltunines A–F from the Marine-Derived Fungus Penicillium piltunense KMM 4668” (Marine Drugs, 2019)

What was measured:
[1] = MTT cytotoxicity assay, PNT-2 cells; format: cell-based, human; details: human, PNT-2 prostate non-cancer cells, 100 µM, 72 h, read-out: Viability at 100 µM, % of Control, PNT-2 Cells
Source text: (§1) We have investigated the effect of the isolated compounds 1, 1a, 2, 7–9 on the viability of human drug-resistant prostate cancer 22Rv1 cell as well as on human prostate non-cancer PNT-2 cells using an MTT assay (Table 3). We have also determined a selectivity index (SI) at for all the tested substances (Table 3). […] Note, 22Rv1 cells are known to be resistant to the hormone therapy due to the expression of androgen receptor splice variant AR-V7 [15]. Thus, the compounds which are active inAR-V7-positive 22Rv1 cells are of high clinical interest.
(§2) The human prostate cancer cells 22Rv1 and human prostate non-cancer cells PNT-2 were purchased from ATCC. Cell lines were cultured according to the manufacturers instructions in 10% FBS/RPMI media (Invitrogen). Cells were continuously kept in culture for a maximum of 3 months, and were routinely inspected microscopically for stable phenotype and regularly checked for contamination with mycoplasma. The authentity of the cells has recently been confirmed by the Multiplexion (Heidelberg, Germany) using highly polymorphic short tandem repeat loci.
(§3) The in vitro cytotoxicity of individual substances was evaluated using the MTT (3-(4,5-dimethylthiazol-2-yl)-2,5-diphenyltetrazolium bromide) assay, which was performed as previously described. The vehicle (DMSO) treated cells were used as a negative control. Treatment time was 72 h.

[2] = test system: human prostate non-cancer PNT-2 cells; assay: MTT cytotoxicity assay, PNT-2 cells; format: cell-based; details: Homo sapiens, PNT2, 72 h treatment
Source text: as §1, §2, §3

[3] = test system: human drug-resistant prostate cancer 22Rv1 cell; assay: MTT cytotoxicity assay, 22Rv1 cells; format: cell-based; details: for viability at 100 µM / IC50: Homo sapiens, 22Rv1; for viability at 100 µM: read-out: Viability at 100 µM, % of Control, 22Rv1 Cells; for IC50: 72 h treatment; for SI (selectivity index): [viability of PNT-2 cells]/[viability of 22Rv1 cells] at 100 µM
Source text: as §1, §2, §3

[4] = test system: murine peritoneal macrophages co-incubated with lipopolysaccharide (LPS); assay: ROS level analysis in LPS-treated macrophages (DCF-DA fluorescence); format: cell-based, Mice BALB/c; details: 10 μM, 1 h at 37 °C, LPS co-incubation; p < 0.05
Protocol: Figure 5 Effect of compounds on reactive oxygen species (ROS) level in murine peritoneal macrophages co-incubated with lipopolysaccharide (LPS). The compounds were tested at a concentration of 10 μM. Time of cell incubation with compounds was 1 h at 37 °C. * p < 0.05. (Student’s t-test).
The suspension of macrophages on 96-well plates (2 × 10^4 cells/well) were washed withphosphate-buffered saline (PBS) and treated with 180 µL/well of the tested compounds (10 μM) for 1 h and 20 µL/well LPS from E. coli serotype 055:В5 (Sigma-Aldrich, MA, USA, 1.0 μg/mL), which were both dissolved in PBS and cultured at 37 °C in a CO2-incubator for one hour. For the ROS levels measurement, 200 μL of 2,7-dichlorodihydrofluorescein diacetate (DCF-DA, Sigma, final concentration 10 μM) fresh solution was added to each well, and the plates were incubated for 30 min at 37 °C. The intensity of DCF-DA fluorescence was measured at λex 485 n/λem 518 nm using the plate reader PHERAstar FS (BMG Labtech, Offenburg, Germany).
Mice BALB/c were sacrificed by cervical dislocation. Peritoneal macrophages were isolated using standard procedures. For this purpose, 3 ml of PBS (pH 7.4) was injected into the peritoneal cavity and the body intensively palpated for 1–2 min. Then the peritoneal fluid was aspirated with a syringe. […]

[5] = test system: LPS-stimulated macrophages; assay: NO (RNS) level analysis in LPS-treated macrophages (DAF FM-DA fluorescence); format: cell-based, Mice BALB/c; details: 1 μM (non-toxic concentration); p < 0.05
Protocol: Compound 9 suppressed NO production in LPS-stimulated macrophages at non-toxic concentration of 1 μM. NO level in these cells was decreased by 24.1 ± 0.7% (p < 0.05, Student’s t-test) in comparison with LPS-treated control (data not shown). Therefore, compound 9 may be a promising candidate for the therapy of inflammatory diseases accompanying overproduction of NO.
The suspension of macrophages on 96-well plates (2 × 10^4 cells/well) were washed with the PBS and treated with 180 µL/well of the tested compounds (10 μM) for 1 h and 20 µL/well LPS from E. coli serotype 055:В5 (Sigma, 1.0 μg/mL), which were both dissolved in PBS and cultured at 37 °C in a CO2-incubator for one hour. For the RNS levels measurement, 200 μL Diaminofluorescein-FM diacetate (DAF FM-DA, Sigma, final concentration 10 μM) fresh solution was added to each well, and the plates were incubated for 40 min at 37 °C, then replace with fresh PBS, and then incubated for an additional 30 min to allow complete de-esterification of the intracellular diacetates. The intensity of DAF FM-DA fluorescence was measured at λex 485 n/λem 520 nm using the plate reader PHERAstar FS (BMG Labtech, Offenburg, Germany).
Mice BALB/c were sacrificed by cervical dislocation. Peritoneal macrophages were isolated using standard procedures. […]

| SMILES | viability at 72 h, 100 µM [1] | IC50 [2] | viability at 100 µM ([3]; 72 h, MTT assay) | IC50 ([3]; MTT assay) | SI (selectivity index) ([3]; 72 h) | Effect on ROS production [4] | Cytotoxicity in cancer cells in comparison with the other substances ([3]; MTT assay, 72 h) | Decrease of NO level in comparison with LPS-treated control [5] | IC50 ([2]; positive control) | IC50 ([3]; MTT assay, positive control) |
| --- | --- | --- | --- | --- | --- | --- | --- | --- | --- | --- |
| CC(CO)=C1CCC23COC(C2)C(O)(C(=O)O)CCC13 (centres unmarked) [Compound 1, Piltunine A] | 97.2% | > 100 µM | 65.5% | > 100 µM | 1.48 | – | – | – | – | – |
| COC(=O)C1(O)CCC2C(=C(C)CO)CCC23COC1C3 (centres unmarked) [Compound 1a] | 80.4% | > 100 µM | 62.2% | > 100 µM | 1.29 | – | – | – | – | – |
| CC(=O)OC/C(C)=C1\CC[C@]23CO[C@H](C2)[C@@](O)(C(=O)O)CC[C@@H]13 [Compound 2, Piltunine B] | 82.9% | > 100 µM | 61.9% | > 100 µM | 1.34 | – | – | – | – | – |
| CC(=O)C1=CC[C@]23CO[C@H](C2)[C@@](O)(C(=O)O)CC[C@@H]13 [Compound 5, Piltunine E] | – | – | – | – | – | significant down-regulation of ROS production | – | – | – | – |
| C=C(C)C1(O)CCC23COC(C2)C(O)(C(=O)O)CCC31 (centres unmarked) [Compound 7, penigrisacid D] | 80.7% | > 100 µM | 63.8% | > 100 µM | 1.26 | – | – | – | – | – |
| C[C@H]1CCC[C@H](C[C@H]2Cc3cc(O)cc(O)c3C(=O)O2)O1 [Compound 8, cladosporin] | 88.1% | > 100 µM | 38.7% | 71.7 ± 8.9 µM | – | – | most cytotoxic in cancer cells | – | – | – |
| CC1OC(CC2Cc3cc(O)cc(O)c3C(=O)O2)CCC1O (centres unmarked) [Compound 9, 5’-hydroxyasperentin] | 55.5% | > 100 µM | 54.9% | > 100 µM | 1.01 | significant down-regulation of ROS production | – | 24.1 ± 0.7% | – | – |
| CC(=O)O[C@@]12CO[C@@H]1C[C@H](O)[C@@]1(C)C(=O)[C@H](O)C3=C(C)[C@@H](OC(=O)[C@H](O)[C@@H](NC(=O)OC(C)(C)C)c4ccccc4)C[C@@](O)([C@@H](OC(=O)c4ccccc4)[C@H]21)C3(C)C [Docetaxel, reference compound] | – | – | – | – | – | – | – | – | 0.0847 ± 0.0206 µM | 0.00278 ± 0.00107 µM |
